How the values were obtained:
rat paw edema = assay: Rat Carrageenan Foot Pad Edema Test; assay type: in vivo, Male Sprague-Dawley rats; conditions: oral, 3 h after carrageenan
Procedure: Rat Carrageenan Foot Pad Edema Test
Male Sprague-Dawley rats were selected in each group so that the average body weight was as close as possible. Rats were fasted with free access to water for over sixteen hours prior to the test. […] One hour later a subplantar injection of 0.1 mL of 1% solution of carrageenan/sterile 0.9% saline was administered and the volume of the injected foot was measured with a displacement plethysmometer connected to a pressure transducer with a digital indicator. Three hours after the injection of the carrageenan, the volume of the foot was again measured.

[1] = system: hyperalgesic foot withdrawal (rat); assay: Rat Carrageenan-induced Analgesia Test; assay type: in vivo, Male Sprague-Dawley rats; conditions: oral, 3 h after carrageenan
Procedure: Rat Carrageenan-induced Analgesia Test
Male Sprague-Dawley rats were treated as previously described for the Carrageenan Foot Pad Edema test. Three hours after the injection of the carrageenan, the rats were placed in a special plexiglass container with a transparent floor having a high intensity lamp as a radiant heat source, positionable under the floor. After an initial twenty minute period, thermal stimulation was begun on either the injected foot or on the contralateral uninjected foot. A photoelectric cell turned off the lamp and timer when light was interrupted by paw withdrawal. The time until the rat withdraws its foot was then measured. The withdrawal latency in seconds was determined for the control and drug-treated groups, and percent inhibition of the hyperalgesic foot withdrawal determined.

COX-2 = assay: Evaluation of COX-2 activity in vitro (PGE2 ELISA, recombinant enzyme); assay type: biochemical, human or murine; conditions: arachidonic acid 10 μM, pH 8.0, pre-incubation 10-20 minutes
Procedure: The COX-2 inhibition activity of the compounds of this invention illustrated in the Examples was determined by the following methods.
(§1) a. Preparation of recombinant COX baculoviruses
(§2) Recombinant COX-1 and COX-2 were prepared as scribed by Gierse et al, [J. Biochem., 305, 479-84 (1995)]. […] Recombinant baculoviruses were isolated by transfecting 4 μg of baculovirus transfer vector DNA into SF9 insect cells (2×10^8) along with 200 ng of linearized baculovirus plasmid DNA by the calcium phosphate method. See M. D. Summers and G. E. Smith, A Manual of Methods for Baculovirus Vectors and Insect Cell Culture Procedures, Texas Agric. Exp. Station Bull. 1555 (1987). Recombinant viruses were purified by three rounds of plaque purification and high titer (10^7 -10^8 pfu/mL) stocks of virus were prepared. For large scale production, SF9 insect cells were infected in 10 liter fermentors (0.5×10^6 /mL) with the recombinant baculovirus stock such that the multiplicity of infection was 0.1. After 72 hours the cells were centrifuged and the cell pellet homogenized in Tris/Sucrose (50 mM: 25%, pH 8.0) containing 1% 3-[(3-cholamidopropyl)dimethylammonio]-1-propanesulfonate (CHAPS). The nomogenate was centrifuged at 10,000×G for 30 minutes, and the resultant supernatant was stored at -80° C. before being assayed for COX activity.
(§3) COX activity was assayed as PGE2 formed/μg protein/time using an ELISA to detect the prostaglandin released. CHAPS-solubilized insect cell membranes containing the appropriate COX enzyme were incubated in a potassium phosphate buffer (50 mM, pH 8.0) containing epinephrine, phenol, and heme with the addition of arachidonic acid (10 μM). […] Any reaction between the arachidonic acid and the enzyme was stopped after ten minutes at 37° C./room temperature by transferring 40 μl of reaction mix into 160 μl ELISA buffer and 25 μM indomethacin. The PGE2 formed was measured by standard ELISA technology (Cayman Chemical).

COX-1 = assay: Evaluation of COX-1 activity in vitro (PGE2 ELISA, recombinant enzyme); assay type: biochemical, human or murine; conditions: arachidonic acid 10 μM, pH 8.0, pre-incubation 10-20 minutes
Procedure: as §1, §2, §3

Structure (SMILES): Cc1onc(-c2ccccc2)c1-c1ccc(S(N)(=O)=O)cc1 [Example 1, 4-[5-Methyl-3-phenylisoxazol-4-yl]benzenesulfonamide]
- RAT PAW EDEMA % Inhibition (rat paw edema; @ 10 mg/kg body weight): 29%
- ANALGESIA % Inhibition ([1]; @ 10 mg/kg body weight): 33%

Structure (SMILES): NS(=O)(=O)c1ccc(-c2c(-c3ccccc3)noc2C(F)F)cc1 [Example 1j, 4-[5-difluoromethyl-3-phenylisoxazol-4-yl]benzenesulfonamide]
- RAT PAW EDEMA % Inhibition (rat paw edema; @ 10 mg/kg body weight): 37%
- ANALGESIA % Inhibition ([1]; @ 10 mg/kg body weight): 28%
- IC50 (COX-2): < 0.1 µM
- IC50 (COX-1): > 100 µM

Structure (SMILES): NS(=O)(=O)c1ccc(-c2c(-c3ccccc3)noc2CO)cc1 [Example 10, 4-[5-Hydroxymethyl-3-phenylisoxazol-4-yl]benzenesulfonamide]
- RAT PAW EDEMA % Inhibition (rat paw edema; @ 10 mg/kg body weight): 57%
- ANALGESIA % Inhibition ([1]; @ 10 mg/kg body weight): 74%
- IC50 (COX-1): > 100 µM

Structure (SMILES): CCc1noc(-c2ccccc2)c1-c1ccc(S(N)(=O)=O)cc1 [Example 14, 4-[3-Ethyl-5-phenylisoxazol-4-yl]benzenesulfonamide]
- ANALGESIA % Inhibition ([1]; *@ 30 mg/kg): 27%
- IC50 (COX-2): < 0.1 µM
- IC50 (COX-1): 100 µM

Structure (SMILES): CC(C)(O)COCc1onc(-c2ccccc2)c1-c1ccc(S(N)(=O)=O)cc1 [Example 56, 4-[5-(2-Methyl-2-hydroxy-1-n-propyloxymethyl)-3-phenylisoxazol-4-yl]benzenesulfonamide]
- RAT PAW EDEMA % Inhibition (rat paw edema; *@ 30 mg/kg): 29%
- ANALGESIA % Inhibition ([1]; *@ 30 mg/kg): 27%
- IC50 (COX-2): 0.2 µM
- IC50 (COX-1): > 100 µM

Structure (SMILES): CC(C)(O)CCCc1onc(-c2ccccc2)c1-c1ccc(S(N)(=O)=O)cc1 [Example 57, 4-[5-(4-Hydroxy-4-methylpentyl)-3-phenylisoxazol-4-yl]benzenesulfonamide]
- RAT PAW EDEMA % Inhibition (rat paw edema; *@ 30 mg/kg): 23%
- ANALGESIA % Inhibition ([1]; *@ 30 mg/kg): 5%
- IC50 (COX-2): 0.1 µM
- IC50 (COX-1): > 100 µM

Structure (SMILES): NS(=O)(=O)c1ccc(-c2c(-c3ccccc3)noc2CCO)cc1 [Example 66, 4-[5-(2-Hydroxyethyl)-3-phenylisoxazol-4-yl]benzenesulfonamide]
- RAT PAW EDEMA % Inhibition (rat paw edema; *@ 30 mg/kg): 43%
- ANALGESIA % Inhibition ([1]; *@ 30 mg/kg): 49%
- IC50 (COX-2): < 0.1 µM
- IC50 (COX-1): > 100 µM

— US5859257A, “Isoxazole compounds as cyclooxygenase inhibitors” (G. D. Searle & Co., priority 1996, dated 1999)
